Experimental data as given in ChEMBL document CHEMBL1201862, “PubChem BioAssay data set” (2004).
Activity calls are given as the source filed them.

biological target: T1, Heat shock factor protein 1 (Mus musculus, UniProt P38532); test: inhibition of MG132-induced HSE-luciferase signal, confirmation, cell-based, NIH3T3, luminescence, dose retest (AID 2382); type: functional; details: not given;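 further: NIH3T3 fibroblasts with HSF1-driven luciferase reporter stressed by proteasome inhibitor MG132; luminescence from HSF1-driven luciferase expression after 8 hours of MG132 stress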
T1 sequence (P38532 whole entry): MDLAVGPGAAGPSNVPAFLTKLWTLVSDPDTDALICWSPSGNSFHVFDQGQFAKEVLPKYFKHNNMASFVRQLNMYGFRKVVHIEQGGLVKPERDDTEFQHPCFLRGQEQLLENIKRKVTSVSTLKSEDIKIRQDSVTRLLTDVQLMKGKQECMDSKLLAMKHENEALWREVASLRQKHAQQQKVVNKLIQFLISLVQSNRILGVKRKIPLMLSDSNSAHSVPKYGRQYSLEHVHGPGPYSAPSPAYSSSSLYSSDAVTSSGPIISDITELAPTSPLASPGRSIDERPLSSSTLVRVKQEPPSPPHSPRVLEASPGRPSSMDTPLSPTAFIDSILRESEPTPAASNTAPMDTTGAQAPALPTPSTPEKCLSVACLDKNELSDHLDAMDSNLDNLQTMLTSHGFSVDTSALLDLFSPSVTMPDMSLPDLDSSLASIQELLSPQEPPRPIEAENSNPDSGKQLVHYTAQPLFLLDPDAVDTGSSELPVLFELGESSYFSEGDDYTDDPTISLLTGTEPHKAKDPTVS

SMILES	EC50
Cn1c(-c2nonc2N)nc2ccccc21	> 195 µM (not active)
COC(=O)c1c[nH]nc1N=C(S)Nc1ccc(Cl)c(Cl)c1	0.249 µM (active)
CCOC(=O)c1c(C)[nH]c(C(=O)COC(=O)C2=NNC(=O)CC2)c1C	> 195 µM (not active)
O=C(Nc1ccc(-n2ccnc2P(=O)(O)c2ccccc2)cc1)c1ccccc1Cl	> 195 µM (not active)
COc1ccc(Nc2nc(C)cc(C)c2C#N)cc1OC	> 195 µM (not active)
O=[N+]([O-])c1ccc(/N=C/c2sc3ccccc3c2O)cc1	> 195 µM (not active)
Cn1c(C(C#N)C(=O)c2sc3ccccc3c2Cl)nc2ccccc21 (stereo not given)	> 195 µM (not active)

The next lines start with the values.

EC50	SMILES
> 195 µM (not active)	CCc1ccccc1NC(=O)CSc1nnc(-c2ccncc2)o1
> 195 µM (not active)	Cc1cc(=O)[nH]c2c1c(=O)[nH]n2C1CC(C)N(C)CC1C (stereo not given)
> 195 µM (not active)	CC(=O)C1=C(O)C(=O)N(c2ccc(C)cc2)C1c1ccccn1 (stereo not given)
> 195 µM (not active)	COc1ccc(N2CC(C(=O)Nc3nnc(C4CCCCC4)s3)CC2=O)cc1 (stereo not given)
> 195 µM (not active)	CC(NC(=O)c1ccc2c(c1)OCO2)c1ccccc1 (stereo not given)
> 195 µM (not active)	CCN1CCN(C(=O)C2CCN(C(=O)c3cc4sccc4n3CC)CC2)CC1
> 195 µM (not active)	CCCC(=O)Nc1ccc(Cl)c(NC(=O)c2cccnc2)c1
> 195 µM (not active)	CCOc1ccc(CNCCCSc2ncccn2)cc1OC
> 195 µM (not active)	CCCS(=O)(=O)N1CCc2cc(OC)c(OC)cc2C1
32.2 µM (active)	CCC(=O)N1C(C(=O)N2CCCC2)CSC1c1ccc(OC)cc1 (stereo not given)
> 195 µM (not active)	O=C(NCc1ccncc1)c1ccc(Cl)c(S(=O)(=O)N2CCOCC2)c1
> 195 µM (not active)	CCN(Cc1ccc2c(c1)OCO2)C(=O)/C=C/c1cccc(Br)c1
> 195 µM (not active)	O=C(Nc1ccc(F)cc1)c1ccc(O)nn1
> 195 µM (not active)	CSc1nsc(SCC(=O)NCc2ccc(C)cc2)n1
86.1 µM (active)	CCOC(=O)Cc1cc(O)c2cc(C)ccc2n1
> 195 µM (not active)	CCCC1=Nc2cc(C(=O)NCCCN3CCN(C)CC3)ccc2Sc2ccccc21
> 195 µM (not active)	COc1cc(OC)cc(C(=O)N2CCN(S(C)(=O)=O)CC2)c1

EC50	SMILES
> 195 µM (not active)	Nc1nonc1-c1noc(-c2ccccc2Br)n1
> 195 µM (not active)	CCCCOc1ccc(C2C(=O)N(C3CCCCC3)CC(=O)N2CC2CCCO2)cc1 (stereo not given)
> 195 µM (not active)	CCCC1c2ccc(C)n2CCN1C(=O)Nc1ccc(F)cc1 (stereo not given)
> 195 µM (not active)	CCC(Sc1nc2cc(OC)c(OC)cc2c(=O)n1CCc1ccc(S(N)(=O)=O)cc1)C(=O)NCCOC (stereo not given)
> 195 µM (not active)	COc1ccccc1-n1ccnc(SCC(=O)NCc2ccccc2)c1=O
> 195 µM (not active)	Cc1nnc(N2C(=O)c3cccc4cccc(c34)C2=O)s1
> 195 µM (not active)	CN(Cc1ccccc1)C(=O)CCS(=O)(=O)c1ccc2c(c1)n(C)c(=O)c(=O)n2C
> 195 µM (not active)	CC(=O)Nc1cccc(C(=O)/C=C/c2ccc(C)cc2)c1
> 195 µM (not active)	CCn1c(=O)n(CC)c2cc(N3CCCC3)c(NC(=O)c3ccc(OC)c(Br)c3)cc21
> 195 µM (not active)	Cc1ccc(C)c(N2CCN(CCN3CCCCC3)CC2)c1
60.1 µM (active)	COc1ccc(C(=O)C2CCCN(Cc3ccc(NC(C)=O)cc3)C2)cc1OC (stereo not given)
> 195 µM (not active)	CC1=C(C(=O)Nc2ccccc2)C(c2cc(CN3CCOCC3)cs2)C2=C(O)CCCC2=N1 (stereo not given)
> 195 µM (not active)	CCCC(C)NC(=O)C1c2ccccc2Oc2ccccc21 (stereo not given)
> 195 µM (not active)	Nc1ccc2oc(C3CCCCC3)nc2c1
> 195 µM (not active)	CC(C)CCc1c(O)nc(SCC(=O)N2CCCCCC2)nc1O
> 195 µM (not active)	c1ccc(Cc2nc3ccccc3o2)cc1
> 195 µM (not active)	O=C(N/N=C/c1ccc(Br)o1)c1ccc2c(c1)OCCO2

test system: not listed separately; test: inhibitors of intracellular T. cruzi replication, confirmation, NIH3T3 host cells, beta-gal luminescence (AID 2044); type: functional, cell-based; details: not given;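 further: intracellular parasites grown in NIH/3T3 mouse fibroblasts as host cells; luminescent beta-galactosidase reporter signal from transgenic T. cruzi replicating inside host cells; inhibitors lower the luminescence signal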

SMILES	EC50
CC1=C(C(=O)N2CCc3ccccc32)C2(CCC(C)CC2)OC1=O (stereo not given)	2.67 µM (active)
CCCCSc1nc2ccc(Nc3nc(N4CCOCC4)nc(N4CCOCC4)n3)cc2s1	1.45 µM (active)
O=C(CCc1nc(O)c2ccccc2n1)N1CCN(C/C=C/c2ccccc2)CC1	0.276 µM (active)
CCCCSc1nc2sc3c(c2c(=O)n1-c1ccccc1)CCN(C)C3	0.143 µM (active)
CCOc1ccc2nc(O)c(CN(Cc3cccs3)Cc3nnnn3C(C)(C)CC)cc2c1	2.56 µM (active)
Cc1cc(N2CCN(C)CC2)nc2ccc(NC(=O)c3ccccc3F)cc12	1.02 µM (active)
COc1ccc(-c2cc(C(=O)N3CCN(c4cccc(C)c4C)CC3)c3ccccc3n2)cc1OC	2.93 µM (active)
CC(C)CCNC(=O)CN=C(S)N(Cc1ccccc1)Cc1cccnc1	0.65 µM (active)
FC(F)(F)c1cccc(-c2cc(C3CCNCC3)n[nH]2)c1	3.5 µM (active)
Clc1ccc(SCCOCCN2CCOCC2)cc1	0.803 µM (active)
Cc1ccc(C(=O)NC(=S)Nc2ccc(Oc3ccc(Cl)cc3)cc2)cc1	2.09 µM (active)
Cc1ccc2sc(N(CCCN(C)C)C(=O)c3ccc(S(=O)(=O)N(C)Cc4ccccc4)cc3)nc2c1C	0.451 µM (active)
CCOc1cc(C)c(Cl)cc1S(=O)(=O)n1ccnc1	1.83 µM (active)
O=C(Nc1ccncc1)c1ccc(-c2ccccc2)cc1	1.44 µM (active)
CCOC(=O)c1cc(-c2ccccc2)sc1NC(=O)CN1C(=O)NC(CC)(c2ccc(F)cc2)C1=O (stereo not given)	2.21 µM (active)
CCCCCCCC(=O)Nc1cc(C(=O)NCCC)ccc1N1CCC2(CC1)CC(c1ccccc1)=NO2	1.76 µM (active)
COc1ccc(Cc2nc3c4c(ncn3n2)Oc2ccc3ccccc3c2C4c2ccc(OC)c(OC)c2)cc1 (stereo not given)	1.52 µM (active)
O=C(CCN1CCN(c2ccccc2)CC1)c1ccc(Br)cc1	1.85 µM (active)
Cc1ccc(N/C(SCc2ccccc2C)=C(/C#N)C(=O)NCc2ccco2)cc1C	1.3 µM (active)
CC1CCCCN1C(=O)C(=O)c1cn(CC(=O)N2CCCCCC2)c2ccccc12 (stereo not given)	1.49 µM (active)
Cc1cccc2cc(CN(Cc3ccc(F)cc3)Cc3nnnn3C3CCCC3)c(O)nc12	2.38 µM (active)
COc1ccc(CCN=C(S)NCc2ccc(Cl)c(Cl)c2)cc1OC	2.05 µM (active)
O=[N+]([O-])c1ccc(S(=O)(=O)N2CCN(Cc3c[nH]c4ccccc34)CC2)cc1	1.31 µM (active)
Cc1occc1C(=O)N/N=C/c1ccc(-c2cccc([N+](=O)[O-])c2)o1	2.05 µM (active)

test system: not listed separately; test: cytotoxicity toward NIH3T3 fibroblasts, dose response, counter-screen, cell-based, ATP luminescence, mouse fibroblasts (AID 2010); type: functional; details: not given;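 further: cells exposed to compound for about 90 hours before reading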

SMILES	EC50
CC1=C(C(=O)N2CCc3ccccc32)C2(CCC(C)CC2)OC1=O (stereo not given)	> 60 µM (not active)
CCCCSc1nc2ccc(Nc3nc(N4CCOCC4)nc(N4CCOCC4)n3)cc2s1	> 60 µM (not active)
O=C(CCc1nc(O)c2ccccc2n1)N1CCN(C/C=C/c2ccccc2)CC1	> 30 µM (not active)
CCCCSc1nc2sc3c(c2c(=O)n1-c1ccccc1)CCN(C)C3	> 60 µM (not active)
CCOc1ccc2nc(O)c(CN(Cc3cccs3)Cc3nnnn3C(C)(C)CC)cc2c1	> 30 µM (not active)
Cc1cc(N2CCN(C)CC2)nc2ccc(NC(=O)c3ccccc3F)cc12	> 60 µM (not active)
COc1ccc(-c2cc(C(=O)N3CCN(c4cccc(C)c4C)CC3)c3ccccc3n2)cc1OC	> 60 µM (not active)
CC(C)CCNC(=O)CN=C(S)N(Cc1ccccc1)Cc1cccnc1	> 60 µM (not active)
FC(F)(F)c1cccc(-c2cc(C3CCNCC3)n[nH]2)c1	8.6 µM (active)
Clc1ccc(SCCOCCN2CCOCC2)cc1	> 60 µM (not active)
Cc1ccc(C(=O)NC(=S)Nc2ccc(Oc3ccc(Cl)cc3)cc2)cc1	> 60 µM (inconclusive)
Cc1ccc2sc(N(CCCN(C)C)C(=O)c3ccc(S(=O)(=O)N(C)Cc4ccccc4)cc3)nc2c1C	11.7 µM (active)
CCOc1cc(C)c(Cl)cc1S(=O)(=O)n1ccnc1	21.4 µM (active)
O=C(Nc1ccncc1)c1ccc(-c2ccccc2)cc1	> 60 µM (inconclusive)
CCOC(=O)c1cc(-c2ccccc2)sc1NC(=O)CN1C(=O)NC(CC)(c2ccc(F)cc2)C1=O (stereo not given)	> 60 µM (not active)
CCCCCCCC(=O)Nc1cc(C(=O)NCCC)ccc1N1CCC2(CC1)CC(c1ccccc1)=NO2	> 60 µM (not active)
COc1ccc(Cc2nc3c4c(ncn3n2)Oc2ccc3ccccc3c2C4c2ccc(OC)c(OC)c2)cc1 (stereo not given)	> 60 µM (inconclusive)
O=C(CCN1CCN(c2ccccc2)CC1)c1ccc(Br)cc1	> 60 µM (not active)
Cc1ccc(N/C(SCc2ccccc2C)=C(/C#N)C(=O)NCc2ccco2)cc1C	> 60 µM (not active)
CC1CCCCN1C(=O)C(=O)c1cn(CC(=O)N2CCCCCC2)c2ccccc12 (stereo not given)	> 60 µM (not active)
Cc1cccc2cc(CN(Cc3ccc(F)cc3)Cc3nnnn3C3CCCC3)c(O)nc12	28.9 µM (active)
COc1ccc(CCN=C(S)NCc2ccc(Cl)c(Cl)c2)cc1OC	> 60 µM (inconclusive)
O=[N+]([O-])c1ccc(S(=O)(=O)N2CCN(Cc3c[nH]c4ccccc34)CC2)cc1	> 60 µM (not active)
Cc1occc1C(=O)N/N=C/c1ccc(-c2cccc([N+](=O)[O-])c2)o1	> 60 µM (not active)

biological target: Cytochrome P450 2C19 (Homo sapiens, UniProt P33261); test: Cytochrome panel assay with activity outcomes. Panel member name: p450-cyp2c19 Compounds with AC50 equal or less than 10 uM are considered active; type: functional; details: not given
Sequence (P33261 whole entry): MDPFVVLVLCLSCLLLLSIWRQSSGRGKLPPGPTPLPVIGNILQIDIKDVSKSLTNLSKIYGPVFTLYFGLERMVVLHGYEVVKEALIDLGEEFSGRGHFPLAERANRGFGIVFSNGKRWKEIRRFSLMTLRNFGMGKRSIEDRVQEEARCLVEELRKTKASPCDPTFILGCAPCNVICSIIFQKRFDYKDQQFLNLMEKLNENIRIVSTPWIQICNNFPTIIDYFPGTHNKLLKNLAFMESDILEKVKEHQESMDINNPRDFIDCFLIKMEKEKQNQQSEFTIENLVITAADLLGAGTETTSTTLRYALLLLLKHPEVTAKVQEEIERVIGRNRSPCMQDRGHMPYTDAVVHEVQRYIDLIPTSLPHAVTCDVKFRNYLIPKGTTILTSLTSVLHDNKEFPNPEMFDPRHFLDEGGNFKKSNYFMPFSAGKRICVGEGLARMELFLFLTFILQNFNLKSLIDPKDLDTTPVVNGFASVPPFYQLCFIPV

SMILES	AC50
C/C(=C\C=C/[C@@H](C)C(=O)O)[C@H]1CN[C@H](C(=O)O)[C@@H]1CC(=O)O	inconclusive
Nc1c(S(N)(=O)=O)cc(S(N)(=O)=O)cc1S(N)(=O)=O	inconclusive
CSC(=N)NCCC[C@@H](N)C(=O)O [S-METHYL-D-THIOCITRULLINE]	inconclusive

The next lines start with the values.

AC50	SMILES
inconclusive	C[N+](C)(C)c1ncnc2c1ncn2[C@@H]1CCCCO1
inconclusive	Cc1cc(C(=O)Nc2c(C)n(C)n(-c3ccccc3)c2=O)c2ccccc2n1
inconclusive	CCCc1cc(=O)[nH]c(=S)[nH]1 [PROPYLTHIOURACIL]

same assay, conditions: read-out: AC50

SMILES	AC50
O=C(c1cccc(F)c1)N1CCC[C@@]2(CCN(c3ccncc3)C2)C1	2.51 µM (inconclusive)
Cc1ccsc1-c1nc(-c2ccccc2)c(-c2ccccc2)[nH]1	10 µM (inconclusive)
COc1ccc(OC)c(CNC(=O)CCNC(=O)Cn2ccc3ccccc3c2=O)c1	31.6 µM (inconclusive)
Cc1nc2cnc(Oc3cccc(Cl)c3)nc2n(C2CC2)c1=O	31.6 µM (inconclusive)
CC1(C)C2([N+](=O)[O-])CN3CC1([N+](=O)[O-])CN(C2)C3c1ccccc1 (stereo not given)	0.355 µM (inconclusive)
